In patent US9315491B2 (DEVELOPMENT CENTER FOR BIOTECHNOLOGY, priority 2009, dated 2016):

Each compound was assayed against recombinant mTOR (Homo sapiens (Human), UniProt P42345) (assay: mTOR kinase assay (33P incorporation into 4EBP1)). Details: compound at 10 μM, 10 μM ATP.
Type: biochemical
How it was run: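 Recombinant human mTOR (50 ng) phosphorylated His-tagged 4EBP1 (300 ng) with 10 μM ATP plus [γ-33P]-ATP in HEPES pH 7.5, MnCl2, EGTA and DTT for 30 min at 30° C. Labelled 4EBP1 was filter-captured and counted. IC50 was derived from eight-point duplicate dilution series.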

Sequence of recombinant mTOR (P42345 1360-2549): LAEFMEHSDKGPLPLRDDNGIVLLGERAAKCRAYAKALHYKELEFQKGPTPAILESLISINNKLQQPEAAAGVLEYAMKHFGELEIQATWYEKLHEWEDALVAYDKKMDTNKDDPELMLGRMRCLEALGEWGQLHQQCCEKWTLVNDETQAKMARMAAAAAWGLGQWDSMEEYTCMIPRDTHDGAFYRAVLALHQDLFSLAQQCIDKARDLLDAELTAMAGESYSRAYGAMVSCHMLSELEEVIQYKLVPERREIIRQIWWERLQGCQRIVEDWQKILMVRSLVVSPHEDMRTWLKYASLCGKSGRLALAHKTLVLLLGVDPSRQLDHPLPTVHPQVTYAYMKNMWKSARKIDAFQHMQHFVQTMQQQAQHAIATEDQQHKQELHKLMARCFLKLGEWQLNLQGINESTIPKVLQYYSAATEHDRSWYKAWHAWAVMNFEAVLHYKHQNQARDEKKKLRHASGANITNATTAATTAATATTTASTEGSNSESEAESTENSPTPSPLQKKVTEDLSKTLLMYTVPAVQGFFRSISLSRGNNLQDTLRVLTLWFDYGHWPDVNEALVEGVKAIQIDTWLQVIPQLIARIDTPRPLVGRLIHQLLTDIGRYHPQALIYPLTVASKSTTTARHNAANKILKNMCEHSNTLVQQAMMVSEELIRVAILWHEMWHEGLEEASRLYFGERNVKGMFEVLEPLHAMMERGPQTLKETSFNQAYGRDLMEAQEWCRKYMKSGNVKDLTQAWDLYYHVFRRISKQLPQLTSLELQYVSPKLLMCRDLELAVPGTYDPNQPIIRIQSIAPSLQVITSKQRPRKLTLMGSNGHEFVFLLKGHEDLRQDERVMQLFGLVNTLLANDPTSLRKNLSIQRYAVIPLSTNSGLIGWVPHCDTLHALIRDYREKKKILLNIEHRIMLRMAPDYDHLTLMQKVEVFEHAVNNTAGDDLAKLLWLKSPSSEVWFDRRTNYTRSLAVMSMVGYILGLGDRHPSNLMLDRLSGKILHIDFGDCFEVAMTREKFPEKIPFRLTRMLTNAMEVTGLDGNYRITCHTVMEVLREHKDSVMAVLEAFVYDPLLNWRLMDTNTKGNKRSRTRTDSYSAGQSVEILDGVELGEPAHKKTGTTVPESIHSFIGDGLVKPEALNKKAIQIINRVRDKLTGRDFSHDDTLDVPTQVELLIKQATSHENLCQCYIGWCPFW

Question: `CSc1c(-c2ccncc2)nc(-c2ccc(NC(=O)Nc3ccon3)cc2)nc1N1CCOCC1` [MTR-0485, 1-Isoxazol-3-yl-3-[4-(5-methylsulfanyl-4-morpholin-4-yl-6-pyridin-4-yl-pyrimidin-2-yl)-phenyl]-urea] was tested. Which inhibition at 10 µM did it give?
Answer: 100%

Question: `COc1cnc(-c2ccc(NC(=O)Nc3ccc(NC(C)=O)nc3)cc2)nc1N1CCOCC1` [MTR-0486, N-(5-{3-[4-(5-Methoxy-4-morpholin-4-yl-pyrimidin-2-yl)-phenyl]-ureido}-pyridin-2-yl)-acetamide] was tested. Which inhibition at 10 µM did it give?
Answer: 88%

Question: Which inhibition at 10 µM does the source give for `CCOc1c(-c2cccnc2)nc(-c2ccc(NC(=O)Nc3ccncc3)cc2)nc1N1CCOCC1` [MTR-0490, 1-[4-(5-Ethoxy-4-morpholin-4-yl-6-pyridin-3-yl-pyrimidin-2-yl)-phenyl]-3-pyridin-4-yl-urea] here?
Answer: 102%

Question: With `CCOc1c(-c2cccnc2)nc(-c2ccc(NC(=O)Nc3cccnc3)cc2)nc1N1CCOCC1` [MTR-0491, 1-[4-(5-Ethoxy-4-morpholin-4-yl-6-pyridin-3-yl-pyrimidin-2-yl)-phenyl]-3-pyridin-3-yl-urea] as the compound, how does the inhibition at 10 µM read?
Answer: 100%

Question: For `CCOc1c(-c2ccncc2)nc(-c2ccc(NC(=O)Nc3ccncc3)cc2)nc1N1CCOCC1` [MTR-0492, 1-[4-(5-Ethoxy-4-morpholin-4-yl-6-pyridin-4-yl-pyrimidin-2-yl)-phenyl]-3-pyridin-4-yl-urea], which inhibition at 10 µM is on record?
Answer: 100%

Question: With `CCOc1c(-c2ccncc2)nc(-c2ccc(NC(=O)Nc3cccnc3)cc2)nc1N1CCOCC1` [MTR-0493, 1-[4-(5-Ethoxy-4-morpholin-4-yl-6-pyridin-4-yl-pyrimidin-2-yl)-phenyl]-3-pyridin-3-yl-urea] as the compound, how does the inhibition at 10 µM read?
Answer: 99%

Question: How did the inhibition at 10 µM turn out when `CCOc1c(Cl)nc(-c2ccc(NC(=O)Nc3ccc(N4CCOCC4=O)cc3)cc2)nc1N1CCOCC1` [MTR-0494, 1-[4-(4-Chloro-5-ethoxy-6-morpholin-4-yl-pyrimidin-2-yl)-phenyl]-3-[4-(3-oxo-morpholin-4-yl)-phenyl]-urea] was run?
Answer: 86%

Question: With `CCOc1c(-c2ccncc2)nc(-c2ccc(NC(=O)Nc3ccc(N4CCOCC4=O)cc3)cc2)nc1N1CCOCC1` [MTR-0495, 1-[4-(5-Ethoxy-4-morpholin-4-yl-6-pyridin-4-yl-pyrimidin-2-yl)-phenyl]-3-[4-(3-oxo-morpholin-4-yl)-phenyl]-urea] as the compound, how does the inhibition at 10 µM read?
Answer: 100%

Question: How did the inhibition at 10 µM turn out when `CCOc1c(-c2cccnc2)nc(-c2ccc(NC(=O)Nc3ccc(N4CCOCC4=O)cc3)cc2)nc1N1CCOCC1` [MTR-0496, 1-[4-(5-Ethoxy-4-morpholin-4-yl-6-pyridin-3-yl-pyrimidin-2-yl)-phenyl]-3-[4-(3-oxo-morpholin-4-yl)-phenyl]-urea] was run?
Answer: 95%

What follows are compounds tested against PI3K (p110α/p85α) (Homo sapiens (Human), UniProt P42336) (assay: PI3K HTRF enzyme assay, p110α/p85α). Details: read-out: % inhibition @ 500 nM p110α; compound at 500 nM, 10 μM ATP.
Type: biochemical
Protocol: Recombinant PI3K (p110α/p85α) and PI3K (p110β/p85α) were from Millipore. […] Briefly, the compounds of interest dissolved in 100% DMSO were dispensed in all wells, following which the mixture of PIP2 and enzyme was added. PI3K (p110α/p85α) and PI3K (p110β/p85α) enzyme reactions were initiated in the presence of 10 μM and 100 μM ATP, respectively, and incubated for 30 min at room temperature. STOP solution prepared 2 hours prior to use was added to stop reactions, and mixed well. Detection solution prepared 2 hours prior to use was added, and incubated at room temperature for 17 hours in the dark. […] HTRF ration was calculated as follows: […]

Sequence of PI3K (p110α/p85α) (P42336 whole entry, species assumed): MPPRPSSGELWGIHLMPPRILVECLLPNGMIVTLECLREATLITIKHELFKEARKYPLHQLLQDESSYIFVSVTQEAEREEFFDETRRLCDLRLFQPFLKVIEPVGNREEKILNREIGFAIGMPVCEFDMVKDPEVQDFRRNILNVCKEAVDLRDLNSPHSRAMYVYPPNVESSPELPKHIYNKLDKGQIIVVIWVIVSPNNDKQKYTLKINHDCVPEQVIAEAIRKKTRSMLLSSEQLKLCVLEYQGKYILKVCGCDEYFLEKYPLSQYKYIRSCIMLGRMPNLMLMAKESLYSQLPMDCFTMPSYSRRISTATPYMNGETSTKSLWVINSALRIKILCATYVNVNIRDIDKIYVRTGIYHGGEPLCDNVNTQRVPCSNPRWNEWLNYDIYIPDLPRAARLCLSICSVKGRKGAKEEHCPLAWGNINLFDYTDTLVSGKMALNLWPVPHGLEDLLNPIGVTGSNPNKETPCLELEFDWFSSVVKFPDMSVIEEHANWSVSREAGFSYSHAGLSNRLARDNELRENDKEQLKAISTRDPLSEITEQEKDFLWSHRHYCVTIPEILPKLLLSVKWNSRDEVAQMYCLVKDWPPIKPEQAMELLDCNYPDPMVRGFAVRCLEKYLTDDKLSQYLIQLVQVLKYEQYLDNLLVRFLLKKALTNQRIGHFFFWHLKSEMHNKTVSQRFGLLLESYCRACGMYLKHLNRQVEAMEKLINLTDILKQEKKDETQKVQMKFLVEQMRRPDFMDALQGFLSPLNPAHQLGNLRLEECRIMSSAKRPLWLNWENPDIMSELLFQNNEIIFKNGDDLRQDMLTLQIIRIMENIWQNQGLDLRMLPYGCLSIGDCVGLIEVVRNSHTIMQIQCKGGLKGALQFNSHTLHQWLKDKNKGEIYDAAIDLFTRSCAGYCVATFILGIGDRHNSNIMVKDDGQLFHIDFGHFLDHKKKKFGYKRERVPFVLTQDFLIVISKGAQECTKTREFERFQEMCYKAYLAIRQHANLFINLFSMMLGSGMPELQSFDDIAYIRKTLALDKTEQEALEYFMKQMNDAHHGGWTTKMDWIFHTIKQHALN
Sequence of PI3K (p110α/p85α) (P27986 whole entry partner, species assumed): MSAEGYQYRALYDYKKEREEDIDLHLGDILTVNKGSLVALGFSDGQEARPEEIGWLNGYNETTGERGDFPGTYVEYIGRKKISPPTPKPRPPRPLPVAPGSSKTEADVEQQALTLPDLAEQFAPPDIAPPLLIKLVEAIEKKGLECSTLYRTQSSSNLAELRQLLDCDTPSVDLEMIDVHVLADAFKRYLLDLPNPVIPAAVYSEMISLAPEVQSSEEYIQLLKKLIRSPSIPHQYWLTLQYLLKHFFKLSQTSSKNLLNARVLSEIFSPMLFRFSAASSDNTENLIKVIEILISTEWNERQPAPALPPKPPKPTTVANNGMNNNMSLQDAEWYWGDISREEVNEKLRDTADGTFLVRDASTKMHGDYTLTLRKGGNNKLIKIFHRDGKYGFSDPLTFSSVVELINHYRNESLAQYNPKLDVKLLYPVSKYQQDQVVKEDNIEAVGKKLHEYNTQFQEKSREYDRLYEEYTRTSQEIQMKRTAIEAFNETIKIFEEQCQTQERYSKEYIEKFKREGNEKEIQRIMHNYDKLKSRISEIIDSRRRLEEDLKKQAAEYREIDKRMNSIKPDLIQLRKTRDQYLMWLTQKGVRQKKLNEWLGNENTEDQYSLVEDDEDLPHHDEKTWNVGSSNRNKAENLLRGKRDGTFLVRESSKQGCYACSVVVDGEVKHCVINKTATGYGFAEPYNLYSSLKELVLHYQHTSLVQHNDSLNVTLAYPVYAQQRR

Question: Which inhibition at 0.5 µM does the source give for `CCOC(=O)c1nc(-c2ccc(NC(=O)Nc3ccccc3)cc2)nc(N2CCOCC2)c1OCC` [MTR-0069, 5-Ethoxy-6-morpholin-4-yl-2-[4-(3-phenyl-ureido)-phenyl]-pyrimidine-4-carboxylic acid ethyl ester] here?
Answer: 53.8%

Question: `CSc1c(Cl)nc(-c2ccc(NC(N)=O)cc2)nc1N1CCOCC1` [MTR-0083, [4-(4-Chloro-5-methylsulfanyl-6-morpholin-4-yl-pyrimidin-2-yl)-phenyl]-urea] was tested. Which inhibition at 0.5 µM did it give?
Answer: 44.8%

Question: For `CCOc1c(C(=O)N2CCOCC2)nc(-c2ccc(NC(=O)Nc3ccccc3)cc2)nc1N1CCOCC1` [MTR-0124, 1-{4-[5-Ethoxy-4-(morpholine-4-carbonyl)-6-morpholin-4-yl-pyrimidin-2-yl]-phenyl}-3-phenyl-urea], which inhibition at 0.5 µM is on record?
Answer: 49.1%

Question: `COc1cnc(-c2ccc(NC(=O)Nc3ccccc3)cc2)nc1N1CCOCC1` [MTR-0128, 1-[4-(5-Methoxy-4-morpholin-4-yl-pyrimidin-2-yl)-phenyl]-3-phenyl-urea] was tested. Which inhibition at 0.5 µM did it give?
Answer: 85.8%

Question: `COc1cnc(-c2ccc(NC(=O)Nc3ccc(F)cc3)cc2)nc1N1CCOCC1` [MTR-0152, 1-(4-Fluoro-phenyl)-3-[4-(5-methoxy-4-morpholin-4-yl-pyrimidin-2-yl)-phenyl]-urea] was tested. Which inhibition at 0.5 µM did it give?
Answer: 83%

Question: How did the inhibition at 0.5 µM turn out when `COc1cnc(-c2ccc(NC(=O)Nc3ccc(F)c(F)c3)cc2)nc1N1CCOCC1` [MTR-0165, 1-(3,4-Difluoro-phenyl)-3-[4-(5-methoxy-4-morpholin-4-yl-pyrimidin-2-yl)-phenyl]-urea] was run?
Answer: 101%

Question: With `CSc1c(N2CCOCC2)nc(-c2ccc(NC(=O)Nc3ccccc3)cc2)nc1N1CCN(S(C)(=O)=O)CC1` [MTR-0173, 1-{4-[4-(4-Methanesulfonyl-piperazin-1-yl)-5-methylsulfanyl-6-morpholin-4-yl-pyrimidin-2-yl]-phenyl}-3-phenyl-urea] as the compound, how does the inhibition at 0.5 µM read?
Answer: 82.1%

Question: With `CSc1c(Cl)nc(-c2ccc(NC(=O)Nc3cccnc3)cc2)nc1N1CCOCC1` [MTR-0197, 1-[4-(4-Chloro-5-methylsulfanyl-6-morpholin-4-yl-pyrimidin-2-yl)-phenyl]-3-pyridin-3-yl-urea] as the compound, how does the inhibition at 0.5 µM read?
Answer: 59.8%

Question: `CCOC(=O)c1nc(-c2ccc(NC(=O)Nc3cccnc3)cc2)nc(N2CCOCC2)c1OCC` [MTR-0205, 5-Ethoxy-6-morpholin-4-yl-2-[4-(3-pyridin-3-yl-ureido)-phenyl]-pyrimidine-4-carboxylic acid ethyl ester] was tested. Which inhibition at 0.5 µM did it give?
Answer: 42.6%

Question: `CSc1c(Cl)nc(-c2ccc(NC(=O)Nc3ccc(N4CCOCC4)c(F)c3)cc2)nc1N1CCOCC1` [MTR-0211, 1-[4-(4-Chloro-5-methylsulfanyl-6-morpholin-4-yl-pyrimidin-2-yl)-phenyl]-3-(3-fluoro-4-morpholin-4-yl-phenyl)-urea] was tested. Which inhibition at 0.5 µM did it give?
Answer: 42%

Question: Which inhibition at 0.5 µM does the source give for `CSc1c(Cl)nc(-c2ccc(NC(=O)Nc3ccc(N4CCN(C)CC4)cc3)cc2)nc1N1CCOCC1` [MTR-0215, 1-[4-(4-Chloro-5-methylsulfanyl-6-morpholin-4-yl-pyrimidin-2-yl)-phenyl]-3-[4-(4-methyl-piperazin-1-yl)-phenyl]-urea] here?
Answer: 53.6%

Question: Which inhibition at 0.5 µM does the source give for `CCOC(=O)c1nc(-c2ccc(NC(=O)Nc3ccc(N4CCOCC4=O)cc3)cc2)nc(N2CCOCC2)c1OCC` [MTR-0222, 5-Ethoxy-6-morpholin-4-yl-2-(4-{3-[4-(3-oxo-morpholin-4-yl)-phenyl]-ureido}-phenyl)-pyrimidine-4-carboxylic acid ethyl ester] here?
Answer: 44.3%

Question: For `CSc1cnc(-c2ccc(NC(=O)Nc3cccnc3)cc2)nc1N1CCOCC1` [MTR-0225, 1-[4-(5-Methylsulfanyl-4-morpholin-4-yl-pyrimidin-2-yl)-phenyl]-3-pyridin-3-yl-urea], which inhibition at 0.5 µM is on record?
Answer: 43.8%

Question: Which inhibition at 0.5 µM does the source give for `CSc1cnc(-c2ccc(NC(=O)Nc3ccc(N4CCOCC4)c(F)c3)cc2)nc1N1CCOCC1` [MTR-0226, 1-(3-Fluoro-4-morpholin-4-yl-phenyl)-3-[4-(5-methylsulfanyl-4-morpholin-4-yl-pyrimidin-2-yl)-phenyl]-urea] here?
Answer: 45.7%

Question: How did the inhibition at 0.5 µM turn out when `CSc1cnc(-c2ccc(NC(=O)Nc3ccc(N4CCOCC4=O)cc3)cc2)nc1N1CCOCC1` [MTR-0227, 1-[4-(5-Methylsulfanyl-4-morpholin-4-yl-pyrimidin-2-yl)-phenyl]-3-[4-(3-oxo-morpholin-4-yl)-phenyl]-urea] was run?
Answer: 87%

Question: How did the inhibition at 0.5 µM turn out when `COc1cnc(-c2ccc(NC(=O)Nc3cccnc3)cc2)nc1N1CCOCC1` [MTR-0228, 1-[4-(5-Methoxy-4-morpholin-4-yl-pyrimidin-2-yl)-phenyl]-3-pyridin-3-yl-urea] was run?
Answer: 74.4%

Question: `CSc1c(Cl)nc(-c2ccc(NC(=O)Nc3ccc(N4CCN(C)CC4)nc3)cc2)nc1N1CCOCC1` [MTR-0236, 1-[4-(4-Chloro-5-methylsulfanyl-6-morpholin-4-yl-pyrimidin-2-yl)-phenyl]-3-[6-(4-methyl-piperazin-1-yl)-pyridin-3-yl]-urea] was tested. Which inhibition at 0.5 µM did it give?
Answer: 61.2%

Question: How did the inhibition at 0.5 µM turn out when `COc1cnc(-c2ccc(NC(=O)Nc3ccc(N4CCOCC4=O)cc3)cc2)nc1N1CCOCC1` [MTR-0241, 1-[4-(5-Methoxy-4-morpholin-4-yl-pyrimidin-2-yl)-phenyl]-3-[4-(3-oxo-morpholin-4-yl)-phenyl]-urea] was run?
Answer: 94.8%

Question: For `COc1cnc(-c2ccc(NC(=O)Nc3ccc(N4CCOCC4)c(F)c3)cc2)nc1N1CCOCC1` [MTR-0242, 1-(3-Fluoro-4-morpholin-4-yl-phenyl)-3-[4-(5-methoxy-4-morpholin-4-yl-pyrimidin-2-yl)-phenyl]-urea], which inhibition at 0.5 µM is on record?
Answer: 96.3%

Question: Which inhibition at 0.5 µM does the source give for `CCOC(=O)c1nc(-c2ccc(NC(=O)Nc3ccc(C(N)=O)cc3)cc2)nc(N2CCOCC2)c1OCC` [MTR-0244, 2-{4-[3-(4-Carbamoyl-phenyl)-ureido]-phenyl}-5-ethoxy-6-morpholin-4-yl-pyrimidine-4-carboxylic acid ethyl ester] here?
Answer: 60%

Question: For `CSc1cnc(-c2ccc(NC(=O)Nc3ccc(N4CCOCC4)cc3)cc2)nc1N1CCOCC1` [MTR-0248, 1-[4-(5-Methylsulfanyl-4-morpholin-4-yl-pyrimidin-2-yl)-phenyl]-3-(4-morpholin-4-yl-phenyl)-urea], which inhibition at 0.5 µM is on record?
Answer: 45.8%

Question: Which inhibition at 0.5 µM does the source give for `CSc1c(Cl)nc(-c2ccc(NC(=O)Nc3ccc(C(N)=O)cc3)cc2)nc1N1CCOCC1` [MTR-0257, 4-{3-[4-(4-Chloro-5-methylsulfanyl-6-morpholin-4-yl-pyrimidin-2-yl)-phenyl]-ureido}-benzamide] here?
Answer: 95.5%

Question: Which inhibition at 0.5 µM does the source give for `COc1cnc(-c2ccc(NC(=O)Nc3ccc(N4CCOCC4)cc3)cc2)nc1N1CCOCC1` [MTR-0261, 1-[4-(5-Methoxy-4-morpholin-4-yl-pyrimidin-2-yl)-phenyl]-3-(4-morpholin-4-yl-phenyl)-urea] here?
Answer: 58.4%

Question: `COc1cnc(-c2ccc(NC(=O)Nc3ccc(N4CCSCC4)cc3)cc2)nc1N1CCOCC1` [MTR-0262, 1-[4-(5-Methoxy-4-morpholin-4-yl-pyrimidin-2-yl)-phenyl]-3-(4-thiomorpholin-4-yl-phenyl)-urea] was tested. Which inhibition at 0.5 µM did it give?
Answer: 56.3%
